According to US20130197030A1, “Substituted 1,3-Dioxanes and There Uses” (Evolva Sa, priority 2007, published 2013):
Each block holds one compound with its values, some of them ahead of it.

Assays:
[1] = target: T1, Thromboxane receptor (TP) (Homo sapiens, UniProt P21731); assay: TP receptor radioligand binding; settings: Human recombinant HEK-293 cells
T1 construct: expressed in transfected cells; host or cells: HEK-293 cells
T1 sequence (P21731 1-343): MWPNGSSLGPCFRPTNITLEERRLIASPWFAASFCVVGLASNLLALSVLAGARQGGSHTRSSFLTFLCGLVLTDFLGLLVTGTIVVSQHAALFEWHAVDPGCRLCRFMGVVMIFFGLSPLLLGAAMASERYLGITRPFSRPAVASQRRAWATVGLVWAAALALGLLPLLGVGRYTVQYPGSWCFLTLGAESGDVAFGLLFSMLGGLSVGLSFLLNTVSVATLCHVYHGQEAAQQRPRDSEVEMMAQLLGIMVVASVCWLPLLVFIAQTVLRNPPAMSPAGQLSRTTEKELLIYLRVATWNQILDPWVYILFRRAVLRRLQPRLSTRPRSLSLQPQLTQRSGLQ
Method: The compounds were tested on radioligand binding assays for thromboxane receptor binding essentially as described by Hedberg et al. (1988) J. Pharmacol. Exp. Ther. 245:786-792 and Saussy et al. (1986) J. Biol. Chem. 261: 3025-3029 according to the following:
TP Receptor Radioligand Binding Studies:
Human recombinant HEK-293 cells,
Incubation Time, Temp: 30 minutes at 25° C.
Incubation Buffer: 50 mM Tris-HCl, pH 7.4, 154 mM NaCl
Non-Specific Ligand: 1 μM SQ-29548
The data were transformed to semi-log and then analysed using non-linear regression to a four-parameter dose-response curve Y=Bottom+(Top−Bottom)/(1+10̂((LogEC50−X)*HillSlope)) using the log(agonist) vs. response—Variable slope function of GraphPad Prism software (http://graphpad.com/help/prism5/prism5help.html?usingnonlinear_regression_step_by_s.htm).

Thromboxane synthase = target: T2, Thromboxane synthase (Homo sapiens, UniProt P24557); assay: Human platelet thromboxane synthase assay; format: biochemical
T2 construct: Human Platelet Thromboxane Synthase Assay; from tissue; host or cells: human platelets
T2 sequence (P24557 1-533): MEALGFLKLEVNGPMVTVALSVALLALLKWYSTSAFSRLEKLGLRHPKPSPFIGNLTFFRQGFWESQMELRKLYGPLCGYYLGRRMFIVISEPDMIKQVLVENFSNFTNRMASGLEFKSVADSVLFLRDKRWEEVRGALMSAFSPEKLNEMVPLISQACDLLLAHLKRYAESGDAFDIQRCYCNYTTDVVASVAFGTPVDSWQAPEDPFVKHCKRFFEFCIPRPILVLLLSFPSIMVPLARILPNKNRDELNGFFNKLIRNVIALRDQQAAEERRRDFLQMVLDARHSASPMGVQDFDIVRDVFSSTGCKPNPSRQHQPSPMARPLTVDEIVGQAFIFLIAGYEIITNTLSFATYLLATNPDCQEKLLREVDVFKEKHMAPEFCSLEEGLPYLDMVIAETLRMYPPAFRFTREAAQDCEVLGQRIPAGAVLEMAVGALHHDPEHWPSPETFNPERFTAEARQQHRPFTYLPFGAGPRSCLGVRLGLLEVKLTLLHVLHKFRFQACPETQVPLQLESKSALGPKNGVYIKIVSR
Method: The compounds were tested for thromboxane synthase inhibition essentially as described by Borsch-Haubold A G, Pasquet S, Watson S P. (1998). Direct inhibition of cyclooxygenase-1 and -2 by the kinase inhibitors SB 203580 and PD 98059. […] 1. Imidazole derivatives. J Med. Chem. (10):1139-48 according to the following:
Pre-incubation time, temp: 15 minutes at 25° C. Incubation time, temp: 3 minutes at 25° C.
Incubation Buffer: 10 mM Tris-HCl, pH 7.4
Quantification Method: ETA quantification of TxB2

[2] = test system: arterial thrombosis in a mouse model; assay: Arterial thrombosis in a mouse model (FeCl3, femoral artery); format: in vivo; settings: mice
Method: The solutions are diluted 3.3-fold in saline and 100 μl/25 g is injected. Thus, the above-mentioned doses of 100 and 300 mg/kg of compound correspond to final doses of 30 and 100 mg/kg.
During the experiments, a soluble salt of the drug is provided (e.g., potassium salt of compound C), diluted in saline. Of this formulation, 100 μl/25 g is injected i.v. in the tail vein (dose of 100 mg/kg).
Solutions are injected (100 μl/25 g body weight) i.v. in the tail vein over 2 min to obtain doses of each compound of 30 mg/kg and 100 mg/kg. Aspirin is given the same way at a dose of 200 mg/kg. Clopidogrel is administered by oral gavage at a dose of 20 mg/kg at 6-7 hours prior to the experiment. The animals assigned to each group are matched for body weight. Mice are typically 8-10 weeks old males and are in a 100% Swiss genetic background.
The flow in each image is expressed as a percentage of that at the contralateral side, and data are averaged for all 120 images to determine total flow. The same analysis is performed for 10 min intervals (which gives essentially the same information as the area under the curve). […] Flow before treatment is recorded as 100%, and that in occluded arteries as 0%. At the end of the experiment, blood is collected on 0.01M citrate buffer by heart puncture for determination of blood cell counts. Plasma is prepared by centrifugation and stored at −20° C. for determination of drug levels.
Statistical analysis for differences between two groups is performed by non-parametric Student t-test. Occlusion times >30 min were considered equal to 30 min for statistical analysis. Significance is set at p<0.05.

[3] = test system: U-46619-induced platelet aggregation; assay: TP receptor platelet aggregation, rabbit; format: cell-based, New Zealand Rabbit
Method: Thrombosis Research 33:277-288.
TP Receptor Platelet Aggregation—Rabbit:
New Zealand Rabbit (2.75±0.25 kg) platelet rich plasma
Assay: Inhibition of 1.5 μM U-46619-induced platelet aggregation Incubation Time, Temp: 5 minutes at 37° C. Incubation Buffer Trisodium Citrate (0.13 M)-treated platelet rich plasma
Time of Assessment: 5 minutes
Quantification Method Optical Density Change

KKA^y mice = assay: In vivo effect on serum glucose and other parameters in KKA^y mice
Method: 52 male KKA^y mice are obtained commercially (e.g., from Clea Japan) at an age of 6 weeks and put on a high fat diet upon arrival. Individual mice were housed in IVC Type II cages during both the acclimatization and the experimental phase. Both food (high fat diet) and water are supplied ad libitum.
1 animal per cage. […] Lights on at 06:00 a.m. Temperature: 21-25° C. Relative humidity target range: 55-60%.
Mice were randomized into treatment groups according to their 4-h fasting blood glucose.
4 hours after the last administration, non-fasting conditions.
Gamma irradiated high fat diet is commercially available (e.g., Research Diets, Inc. New Brunswick, N.J. (Product # D12266BI)).
Blood is collected into heparin containing glass capillaries which are subsequently centrifuged in a “Haematokrit 24” centrifuge (Hettich) at 15′200×g for 10 minutes at room temperature to obtain the hematocrit value.
The following serum parameters are determined on a COBAS INTEGRA 800 auto analyzer (Roche Diagnostics, Switzerland) using the reagents and protocols provided by the supplier.
All measurements are made on Day 14 of administration, except for the food intake and body weight measurements that are made on Day 12.

[4] = 14-day oral gavage BID, dose not given
[5] = 53 mg/kg BID oral gavage 14 days, high fat diet, Day 14

IC50 ([1]; 5 nM [3H] SQ-29548): 88.9 nM
Ki ([1]; 5 nM [3H] SQ-29548): 58 nM
inhibition at 1 µM ([1]; at 1 μM, 5 nM [3H] SQ-29548): 99%
IC50 (Thromboxane synthase): 0.365 µM
inhibition at 1 µM (Thromboxane synthase; at 1 μM): 67%
SMILES: O=C(O)CC/C=C\C[C@@H]1CO[C@H](c2coc3ccc(Cl)cc3c2=O)O[C@@H]1c1ccccc1O (single isomer, unassigned) [Compound 3-1]
Binding to the TP receptor (comparison of enantiomers) [1]: binds with higher affinity than enantiomer 3-2

Heart weight (KKA^y mice; 5 mg/kg BID oral gavage 14 days, high fat diet, Day 14): 226.2 ± 6.9 mg
Heart weight (KKA^y mice; 5 mg/kg BID oral gavage 14 days, high fat diet, Day 14, listed as rosiglitazone): increased
SMILES: CN(CCOc1ccc(CC2SC(=O)NC2=O)cc1)c1ccccn1 (stereo not shown) [Rosiglitazone, reference compound]

IC50 ([1]; 5 nM [3H] SQ-29548): 1680 nM
Ki ([1]; 5 nM [3H] SQ-29548): 1100 nM
inhibition at 10 µM ([1]; 5 nM [3H] SQ-29548): 93%
IC50 (Thromboxane synthase): > 100 µM
inhibition at 100 µM (Thromboxane synthase; at 100 μM): 37%
SMILES: O=C(O)CC/C=C\C[C@H]1CO[C@@H](c2coc3ccc(Cl)cc3c2=O)O[C@H]1c1ccccc1O (single isomer, unassigned) [Compound 3-2]

The remaining lines, values behind:

SMILES: Cc1ccc2nc(Cl)c([C@H]3OC[C@@H](C/C=C\CCC(=O)O)[C@@H](c4ccccc4O)O3)cc2c1 (racemic) [Compound 13, (Z)-6-(2-(2-Chloro-6-methyl-quinolin-3-yl)-4-(2-hydroxyphenyl)-1,3-dioxan-5-yl)hex-4-enoic acid]
Occlusion time ([2]; dose not given): prolongs the occlusion time
Total blood flow ([2]; dose not given): improves total blood flow
Inhibition of platelet aggregation (in words) [3]: potent inhibitors of platelet aggregation
inhibition at 10 µM ([3]; Oryctolagus cuniculus, at 10 μM, 1.5 μM U-46619, platelet rich plasma): 100%
FFA (KKA^y mice; [4]): decreases the FFA
HbA1c levels (KKA^y mice; [4]): decreased
Heart weight (KKA^y mice; [4]): has no effect on heart weight
Body weight (KKA^y mice; oral gavage BID, dose not given): do not alter body weight
Inhibition of thromboxane synthase (in words) (Thromboxane synthase): potent inhibitors of thromboxane synthase
inhibition at 5 µM (Thromboxane synthase; at 5 μM): 85%

SMILES: COc1ccccc1[C@@H]1O[C@H](c2ccccc2Cl)OC[C@@H]1C/C=C\CCC(=O)O [Compound F, (Z)-6-((2R,4R,5S)-2-(2-chlorophenyl)-4-(2-methoxyphenyl)-1,3-dioxan-5-yl)hex-4-enoic acid, reference compound]
IC50 ([1]; 5 nM [3H] SQ-29548): 23.4 nM
Ki ([1]; 5 nM [3H] SQ-29548): 15.3 nM
inhibition at 0.3 µM ([1]; at 0.3 μM, 5 nM [3H] SQ-29548): 96%
IC50 (Thromboxane synthase): 20.4 µM
Thromboxane synthase Human platelet Inhibition (%) (Thromboxane synthase; at 30 μM): 62 @ 30 μM %

SMILES: CC(=O)Oc1ccccc1C(=O)O [Aspirin]
Occlusion time ([2]; 200 mg/kg i.v.): has no effect on the occlusion time
Total blood flow ([2]; 200 mg/kg i.v.): has no significant effect on the total blood flow

SMILES: O=C(O)CC/C=C\C[C@@H]1CO[C@H](c2ccccc2Cl)O[C@@H]1c1ccccc1O [Compound C, (Z)-6-((2S,4S,5R)-2-(2-chlorophenyl)-4-(2-hydroxyphenyl)-1,3-dioxan-5-yl)hex-4-enoic acid, reference compound]
Occlusion time ([2]; 30 mg/kg in vehicle i.v.): slightly prolongs the occlusion time as compared to aspirin (p=0.024), but has no effect as compared to vehicle
Total blood flow ([2]; 30 mg/kg in vehicle i.v.): has no effect on total blood flow
FFA (KKA^y mice; [5]): decreases the FFA
HbA1C (KKA^y mice; [5]): decreased
Heart weight (KKA^y mice; [5]): has no effect on heart weight
Serum Glucose (KKA^y mice; [5]): decreased
Body weight (KKA^y mice; 53 mg/kg BID oral gavage, high fat diet, Day 12): do not alter body weight

SMILES: COc1ccccc1[C@@H]1O[C@H](c2ccccc2Cl)OC[C@@H]1C/C=C\CCC(=O)O [Compound E, (Z)-6-((2R,4R,5S)-2-(2-chlorophenyl)-4-(2-methoxyphenyl)-1,3-dioxan-5-yl)hex-4-enoic acid, reference compound]
inhibition at 10 µM ([1]; 5 nM [3H] SQ-29548): 85%
inhibition at 30 µM (Thromboxane synthase; at 30 μM): 52%

SMILES: COC(=O)[C@H](c1ccccc1Cl)N1CCc2sccc2C1 [Clopidogrel]
Total blood flow ([2]; 20 mg/kg oral gavage 6-7 hours prior): significantly improved total blood flow
